Experimental data published in patent US9617311B2, “Use of PEDF-derived polypeptides for promoting stem cells proliferation and wound healing” (Mackay Memorial Hospital, priority 2011, dated 2017).

What was measured:
Assay type in all cases: in vivo, C57L/B6 mice
[1] = system: full-thickness skin excisional wounds; assay: Skin wound healing in mice, wound area from photographs; conditions: for residual epithelial defects, percentage of the original wound: 25 μl skin ointment with 50 μM peptide once daily
Procedure: FIG. 6A provides photographs and FIG. 6B is a histogram, and together, they illustrate the skin (epithelial) wound-healing of mice from treatment groups according to another example of the present disclosure. 4 mm punch wounds were made on the dorsal side of C57/B6 mice. Skin ointment was treated once a day. Photographs of the wounded skin and ruler (scale 10 mm) were captured with a CCD camera (Olympus). The residual epithelial defect (%) is presented as percentage of the original wound. Data are shown as mean±SE.
(§1) To perform full-thickness skin excision, 8- to 10-week-old C57L/B6 mice were respectively anesthetized by an intraperitoneal injection of a mixture of zoletil (6 mg/kg) and xylazine (3 mg/kg). Two full-thickness skin excisional wounds, 4 mm in diameter were made on either side of the dorsal midline using Sklar Tru-Punch disposable biopsy punch (Sklar, West Chester, Pa., USA). In each treatment group (n=6), the skin wound was treated with 25 μl skin ointment (containing 50 μM synthetic peptide and 0.006 μl DMSO vehicle) once daily after the skin scraping. In the control group (n=6), skin wound was treated with 25 μl of skin ointment with equal concentration of DMSO. Each gram of the above skin ointment contains 5 mg neomycin sulfate and 12.5 mg Bacitracin Zinc. Wounds were left uncovered and harvested 4 and 7 days after injury. Mice were housed individually during the healing period.
The area of wound was quantified from the photographs using a computer-assisted image analyzer (Adobe Photoshop CS3 10.0) and was calculated as the percentage of residual epithelial defect at each time point/initial wound area.

[2] = system: basal cells of the hyper-proliferative epithelium; assay: Cell replication at basal layer of HE tissue at day 4 post skin wounding, BrdU immunohistochemistry; conditions: day 4 of skin ointment treatment; BrdU i.p. 3 hours before euthanasia; control wound 30.8±8.1%
Source text: FIGS. 9A and 9B illustrate histological analysis of cell replication at day 4 post-skin wounding. FIG. 9A provides photographs in which specimens were immunehistologically stained with BrdU to observe DNA replication (deep brown color) and counterstained with hematoxylin to observe nuclei. […] (Original magnification, ×200). FIG. 9B is a histogram illustrating numbers of BrdU-positive cells at basal layer of HE tissue. A labeling index (%) was computed as the number of labeled cells divided by the total number of cells at basal layer of HE tissue. *P<0.05 versus control wound.
2×10^5 limbal cells (the 1st passage) were seeded at a slide coated with FNC COATING MIX® solution (Athena Enzyme Systems, Baltimore, Md.) and incubated with a culture medium for one day. BrdU (final, 10 μM) was added to the culture for 2 hours. After being fixed with 4% paraformaldehyde, cells were exposed to cold methanol for 2 minutes, and then treated with 1 N HCl at RT for 1 hour before performing immunofluorescence. For animal study, BrdU was reconstituted in DMSO as stock (80 mM). 10 μl of BrdU mixed with 90 μl of PBS was intraperitoneally injected into mouse 3 hours prior to euthanasia. DNA synthesis was assessed by BrdU labeling with anti-BrdU antibodies.
as §1
To investigate whether skin resurfacing process, which involves cell replication, is accelerated by 29-mer, Mo 29-mer, 20-mer, or Mo 20-mer, wounds were treated with skin ointment containing 29-mer, Mo 29-mer, 20-mer, or Mo 20-mer for 4 days, and then mice were intraperitoneally injected with BrdU for further 3 hours before euthanized. […] This observation was consistent with the thicker HE tissue treated with 29-mer or 20-mer.

[3] = system: full-thickness skin excisional wounds; assay: Skin wound healing in mice, histology with Masson's trichrome; conditions: for residual epithelial defects, Masson's trichrome sections: day 7 after trauma, control ointment 43.5±6.5%; for area of GT (granulation tissue), folds over the control group / area of HE tissue, folds over that of the control group / residual epithelial defect, Masson's trichrome sections: day 4 after trauma; for area of GT (granulation tissue), folds over the control group / area of HE tissue, folds over that of the control group: edge of the wound; for residual epithelial defect, Masson's trichrome sections: sections of the middle of the wounds, control 63.8±5.8%
Source text: FIGS. 7A to 7E provide quantification of wound healing at day 4. […] Arrowheads (▾) and arrows (↓) denote initial wound margins and the foremost tips of the hyperproliferative epithelium (HE; red color), respectively. Data are representative of 10-16 wounds (2 wounds per mouse) in each group. *P<0.02 versus control wound. FIG. 7B is a histogram illustrating the residual epithelial defect (%) in mice from each treatment group; only sections of the middle of the wounds were used for quantification. Data are shown as mean±SE. FIG. 7C provides representative photographs of wound edge. GT: granulation tissue (blue color); Es: eschar (deep-red). […] FIGS. 7D and 7E are histograms providing quantifications of the areas of HE and GT using Adobe Photoshop CS3 10.0. *P<0.02 versus control wound.
FIGS. 8A and 8B provide quantification of wound healing at day 7. […] Arrowheads (▾) and arrows (↓) denote initial wound margins and the foremost tips of the hyperproliferative epithelium, respectively. FIG. 8B is a histogram illustrating the residual epithelial defect (%) in mice from each treatment group; only sections of the middle of the wounds were used for quantification. Data are shown as mean±SE. *P<0.05 versus control wound.
as §1
For histological analysis the complete wounds including 2 mm of the epithelial margins was isolated, bisected, fixed overnight in 4% PFA in PBS, and embedded in paraffin. Sections (5 μm) from the middle of the wound were stained using the Masson's trichrome procedure as described by the manufacturer, in which the epithelium was stained red and connective tissue was stained blue. Photographs were taken using a Leica DC 500 camera (Leica Microsystems).
To further confirm the efficacy of 29-mer and 20-mer on skin wound repair, skin sections from day 4 after trauma were stained using the Masson's trichrome. […] The residual epithelial defect of 29-mer and 20-mer-treated groups were 52.7±6.2% and 49.7±5.6%, respectively; as compared to control animals of 63.8±5.8% (FIG. 7B). In addition, 29-mer treatment elevated the thicknesses of hyper-proliferative epithelial (HE) tissue and granulation tissue (GT) around the edge of the wound (FIG. 7C).
Masson's trichrome was used to stain skin sections obtained from day 7 after trauma for the measurement of the wound closure.

[4] = day 4 post-injury, control 61.5±3.2%
[5] = day 7 post-injury, control 44.5±5.3%

Sequence | promotion of skin wound healing ([1]; days 4 and 7, 50 μM peptide skin ointment once daily) | residual epithelial defects, percentage of the original wound [1, 4] | residual epithelial defects, percentage of the original wound [1, 5] | BrdU-positive cells at basal layer of HE tissue, labeling index [2] | residual epithelial defects, Masson's trichrome sections [3] | area of GT (granulation tissue), folds over the control group [3] | area of HE tissue, folds over that of the control group [3] | residual epithelial defect, Masson's trichrome sections [3]
EQRTESIIHRALYYDLIS [18-mer] | not able to promote wound healing | – | – | – | – | – | – | –
SLGAEHRTESVIHRALYYDL [Mo 20-mer, synthetic peptide derived from mouse PEDF] | – | 49.6±3.9% | 20.3±7.5% | 49.2±4.3% | – | – | – | –
SLGAEHRTESVIHRALYYDLITNPDIHST [Mo 29-mer, synthetic peptide derived from mouse PEDF] | – | 47.8±4.3% | 16.8±6.6% | 52.5±2.5% | 17.2±7.3% | – | – | –
SLGAEQRTESIIHRALYYDL [20-mer, synthetic peptide identical to residues 11-30 of the 39-mer] | – | 50.1±3.8% | 20.0±4.9% | 53.1±6.5% | 20.8±6.1% | 1.37±0.17 folds | 1.32±0.21 folds | 49.7±5.6%
SLGAEQRTESIIHRALYYDLISSPDIHGT [29-mer, short synthetic PEDF peptide derived from the 39-mer] | – | 46.3±3.7% | 18.2±4.3% | 47.9±5.0% | 17.9±3.3% | 1.45±0.23 folds | 1.41±0.25 folds | 52.7±6.2%
